Source: patent US20210024545A1, “SUBSTITUTED DIAZAHETERO-BICYCLIC COMPOUNDS AND THEIR USE” (Bayer Aktiengesellschaft, priority 2016, published 2021)

Columns and labels:
Type in all cases: cell-based
[1] = target: T1, human TASK-3 (Homo sapiens, UniProt Q9NPC2); assay: Inhibition of recombinant TASK-3 in stably transfected CHO cells, KCl-induced depolarization, voltage-sensitive dye (B-2); set-up: expressed in transfected cells; host or cells: stably transfected CHO cells; conditions: depolarization induced by 40 mM potassium chloride, some mean values from multiple determinations
T1 sequence (Q9NPC2 whole entry): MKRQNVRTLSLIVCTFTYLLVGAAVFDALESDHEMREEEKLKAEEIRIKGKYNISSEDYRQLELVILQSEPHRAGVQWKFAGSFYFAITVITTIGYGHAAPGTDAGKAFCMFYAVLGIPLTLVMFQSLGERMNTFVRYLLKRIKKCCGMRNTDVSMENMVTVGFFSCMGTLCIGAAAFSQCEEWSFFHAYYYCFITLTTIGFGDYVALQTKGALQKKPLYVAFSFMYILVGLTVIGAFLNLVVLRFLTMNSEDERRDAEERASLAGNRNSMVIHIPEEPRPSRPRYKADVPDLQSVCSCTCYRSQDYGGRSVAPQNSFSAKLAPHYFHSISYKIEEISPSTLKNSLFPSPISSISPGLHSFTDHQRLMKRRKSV
Outline: (§1)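 Stably transfected CHO cells loaded with a voltage-sensitive membrane potential dye. Depolarization was induced with 40 mM KCl, and compound inhibition of it was read by fluorescence. IC50 is the concentration blocking half of the KCl-induced depolarization; some values are means of multiple independent determinations.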

[2] = target: T2, human TASK-1 (Homo sapiens, UniProt O14649); assay: Two-electrode voltage clamp analysis of human TASK-1 channel in Xenopus laevis oocytes (B-1); set-up: expressed in transfected cells; host or cells: Xenopus laevis oocytes injected with cRNA; conditions: Xenopus laevis oocytes injected with TASK-1 cRNA, 21-22° C.
T2 sequence (O14649 whole entry): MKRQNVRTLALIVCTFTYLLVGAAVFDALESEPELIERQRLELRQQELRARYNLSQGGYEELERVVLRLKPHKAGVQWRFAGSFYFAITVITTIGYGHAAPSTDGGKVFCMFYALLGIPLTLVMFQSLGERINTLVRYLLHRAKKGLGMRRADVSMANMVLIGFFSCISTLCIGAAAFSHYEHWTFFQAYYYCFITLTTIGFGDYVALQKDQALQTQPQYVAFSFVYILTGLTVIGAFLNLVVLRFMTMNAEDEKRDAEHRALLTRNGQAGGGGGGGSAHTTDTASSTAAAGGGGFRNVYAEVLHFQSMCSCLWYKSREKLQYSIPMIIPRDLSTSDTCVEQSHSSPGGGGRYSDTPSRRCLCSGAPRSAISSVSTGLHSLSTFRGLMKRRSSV
Protocol: (§2) B-1. In Vitro Electrophysiological Analysis of the Human TASK-1 and TASK-3 Channels via Two-Electrode Voltage Clamp Technique in Xenopus laevis Oocytes
(§3) Xenopus laevis oocytes were selected as described elsewhere by way of illustration [Decher et al., FEBS Lett. 492, 84-89 (2001)]. Subsequently, the oocytes were injected with 0.5-5 ng of a cRNA solution coding for TASK-1 or TASK-3. For the electrophysiological analysis of the channel proteins expressed in the oocytes, the two-electrode voltage clamp technique [Stühmer, Methods Enzymol. 207, 319-339 (1992)] was used. The measurements were conducted as described [Decher et al., FEBS Lett. 492, 84-89 (2001)] at room temperature (21-22° C.) using a Turbo TEC 10CD amplifier (NPI), recorded at 2 kHz and filtered with 0.4 kHz. Substance administration was performed using a gravitation-driven perfusion system. Here, the oocyte is located in a measuring chamber and exposed to the solution stream of 10 ml/min The level in the measuring chamber is monitored and regulated by sucking off the solution using a peristaltic pump.

[3] = target: T2, human TASK-1; assay: Inhibition of recombinant TASK-1 in stably transfected CHO cells, KCl-induced depolarization, voltage-sensitive dye (B-2); set-up: expressed in transfected cells; host or cells: stably transfected CHO cells; conditions: depolarization induced by 40 mM potassium chloride, some mean values from multiple determinations
Outline: as §1

[4] = target: T1, human TASK-3; assay: Two-electrode voltage clamp analysis of human TASK-3 channel in Xenopus laevis oocytes (B-1); set-up: expressed in transfected cells; host or cells: Xenopus laevis oocytes injected with cRNA; conditions: Xenopus laevis oocytes injected with TASK-3 cRNA, 21-22° C.
Protocol: as §2, §3

| Compound | IC50 [1] | IC50 [2] | IC50 [3] | IC50 [4] |
| --- | --- | --- | --- | --- |
| O=C(C1CCCO1)N1C2CC1CN(Cc1c(-c3ccc(Cl)cc3)nc3ccccn13)C2 (racemic) [Example 115] | 2400 nM | 22.8 ± 3.7 nM | 4240 nM | 186 ± 5.4 nM |
| COc1ccc(F)c(C(=O)N2CC3CCC2CN3Cc2c(-c3ccc(C(C)C)nc3)nc3ccccn23)n1 (single isomer, unassigned) [Example 126, (3-Fluoro-6-methoxypyridin-2-yl)(5-{[2-(6-isopropylpyridin-3-yl)imidazo[1,2-a]pyridin-3-yl]methyl}-2,5-diazabicyclo[2.2.2]oct-2-yl)methanone] | 713 nM | 127 ± 8.5 nM | 17900 nM | 714.2 ± 0.9 nM |
| COc1ccc(F)c(C(=O)N2CC3CCC2CN3Cc2c(-c3ccc(Cl)cn3)nc3ccccn23)n1 (single isomer, unassigned; enantiomer 1) [Example 24, (5-{[2-(5-Chloropyridin-2-yl)imidazo[1,2-a]pyridin-3-yl]methyl}-2,5-diazabicyclo[2.2.2]oct-2-yl)(3-fluoro-6-methoxypyridin-2-yl)methanone (enantiomer 1)] | 4.5 nM | – | 140 nM | 31.2 ± 5.8 nM |
| COc1cccc(C(=O)N2C[C@H]3CC[C@@H]2CN3Cc2c(-c3ccc(Cl)cc3)nc3ccccn23)n1 [Example 34] | 84 nM | 18.6 ± 4.3 nM | 855 nM | 10.3 ± 0.9 nM |
| O=C(C1CCCC1)N1CC2CCC(C1)N2Cc1c(-c2ccc(Cl)cc2)nc2ccccn12 [Example 86] | 126 nM | 17.1 ± 3.5 nM | 331 nM | 58.4 ± 12.1 nM |
| COc1cccc(C(=O)N2CC3CCC(C2)N3Cc2c(-c3ccc(Cl)cc3)nc3ccccn23)n1 [Example 92] | 29 nM | 13.5 ± 1.2 nM | 895 nM | 5.9 ± 1.8 nM |
| O=C(c1ccccc1F)N1C2CCC1CN(Cc1c(-c3ccc(Cl)cc3)nc3ccccn13)C2 [Example 102] | 56 nM | 8.7 ± 3.6 nM | 277 nM | 4.3 ± 3.5 nM |
| COc1cccc(C(=O)N2C3CCC2CN(Cc2c(-c4ccc(Cl)cc4)nc4ccccn24)C3)n1 [Example 104] | 32 nM | 60.7 ± 12 nM | 255 nM | 4.2 ± 1 nM |
| CCN(CC)C(=O)N1C2COCC1CN(Cc1c(-c3ccc(Cl)cc3)nc3ccccn13)C2 [Example 188, 7-{[2-(4-Chlorophenyl)imidazo[1,2-a]pyridin-3-yl]methyl}-N,N-diethyl-3-oxa-7,9-diazabicyclo[3.3.1]nonane-9-carboxamide] | 5.9 nM | – | 60 nM | – |
| O=C(N1CCOCC1)N1C2COCC1CN(Cc1c(-c3ccc(Cl)cc3)nc3ccccn13)C2 [Example 189, (7-{[2-(4-Chlorophenyl)imidazo[1,2-a]pyridin-3-yl]methyl}-3-oxa-7,9-diazabicyclo[3.3.1]non-9-yl)(morpholin-4-yl)methanone] | 520 nM | – | 8300 nM | – |
| CC(C)N(C(=O)N1C2COCC1CN(Cc1c(-c3ccc(Cl)cc3)nc3ccccn13)C2)C(C)C [Example 190, 7-{[2-(4-Chlorophenyl)imidazo[1,2-a]pyridin-3-yl]methyl}-N,N-diisopropyl-3-oxa-7,9-diazabicyclo[3.3.1]nonane-9-carboxamide] | 19 nM | – | 170 nM | – |
| CCN(C(=O)N1C2COCC1CN(Cc1c(-c3ccc(Cl)cc3)nc3ccccn13)C2)C1CCCCC1 [Example 191, 7-{[2-(4-Chlorophenyl)imidazo[1,2-a]pyridin-3-yl]methyl}-N-cyclohexyl-N-ethyl-3-oxa-7,9-diazabicyclo[3.3.1]nonane-9-carboxamide] | 190 nM | – | 9500 nM | – |
| O=C(N1CCCC1)N1C2COCC1CN(Cc1c(-c3ccc(Cl)cc3)nc3ccccn13)C2 [Example 192, (7-{[2-(4-Chlorophenyl)imidazo[1,2-a]pyridin-3-yl]methyl}-3-oxa-7,9-diazabicyclo[3.3.l]non-9-yl)(pyrrolidin-1-yl)methanone] | 73 nM | – | 870 nM | – |
| CCN(C(=O)N1C2COCC1CN(Cc1c(-c3ccc(Cl)cc3)nc3ccccn13)C2)c1ccccc1 [Example 193, 7-{[2-(4-Chlorophenyl)imidazo[1,2-a]pyridin-3-yl]methyl}-N-ethyl-N-phenyl-3-oxa-7,9-diazabicyclo[3.3.1]nonane-9-carboxamide] | 100 nM | – | 7100 nM | – |
| CC(C)N(C)C(=O)N1C2COCC1CN(Cc1c(-c3ccc(Cl)cc3)nc3ccccn13)C2 [Example 194, 7-{[2-(4-Chlorophenyl)imidazo[1,2-a]pyridin-3-yl]methyl}-N-isopropyl-N-methyl-3-oxa-7,9-diazabicyclo[3.3.1]nonane-9-carboxamide] | 290 nM | – | 3000 nM | – |
| CCOC(=O)N1C2COCC1CN(Cc1c(-c3ccc(Cl)cc3)nc3ccccn13)C2 [Example 195, Ethyl 7-{[2-(4-chlorophenyl)imidazo[1,2-a]pyridin-3-yl]methyl}-3-oxa-7,9-diazabicyclo[3.3.1]nonane-9-carboxylate] | 8.1 nM | – | 230 nM | – |
| O=C(OC1CCCC1)N1C2COCC1CN(Cc1c(-c3ccc(Cl)cc3)nc3ccccn13)C2 [Example 196, Cyclopentyl 7-{[2-(4-chlorophenyl)imidazo[1,2-a]pyridin-3-yl]methyl}-3-oxa-7,9-diazabicyclo[3.3.1]nonane-9-carboxylate] | 52 nM | – | 440 nM | – |
| CCCOC(=O)N1C2COCC1CN(Cc1c(-c3ccc(Cl)cc3)nc3ccccn13)C2 [Example 197, Propyl 7-{[2-(4-chlorophenyl)imidazo[1,2-a]pyridin-3-yl]methyl}-3-oxa-7,9-diazabicyclo[3.3.1]nonane-9-carboxylate] | 13 nM | – | 150 nM | – |
| O=C(N1CCCCC1)N1C2COCC1CN(Cc1c(-c3ccc(Cl)cc3)nc3ccccn13)C2 [Example 198, (7-{[2-(4-Chlorophenyl)imidazo[1,2-a]pyridin-3-yl]methyl}-3-oxa-7,9-diazabicyclo[3.3.1]non-9-yl)(piperidin-1-yl)methanone] | 60 nM | – | 810 nM | – |
